Results on two molecules are retold here after patent US9527887B2 (priority 2011, dated 2016).

Where two headings read alike, the source gives them in different places. Where a SMILES comes first, the peptide text is derived from it. Bridges are numbered along the chain shown (N, C = ends).

In series [1] the target is T1, GC-C (Homo sapiens, UniProt P25092). The experiment in a line: cell-based. The following applies: 30 min at 37° C., IBMX.
The target in series [2] is T1, GC-C. The series is described as follows: biochemical. It is filed as binding.
For series [3] the following is noted: after oral administration at therapeutic dose levels; cited from earlier work.

T1 sequence (P25092 24-1073 limits assumed): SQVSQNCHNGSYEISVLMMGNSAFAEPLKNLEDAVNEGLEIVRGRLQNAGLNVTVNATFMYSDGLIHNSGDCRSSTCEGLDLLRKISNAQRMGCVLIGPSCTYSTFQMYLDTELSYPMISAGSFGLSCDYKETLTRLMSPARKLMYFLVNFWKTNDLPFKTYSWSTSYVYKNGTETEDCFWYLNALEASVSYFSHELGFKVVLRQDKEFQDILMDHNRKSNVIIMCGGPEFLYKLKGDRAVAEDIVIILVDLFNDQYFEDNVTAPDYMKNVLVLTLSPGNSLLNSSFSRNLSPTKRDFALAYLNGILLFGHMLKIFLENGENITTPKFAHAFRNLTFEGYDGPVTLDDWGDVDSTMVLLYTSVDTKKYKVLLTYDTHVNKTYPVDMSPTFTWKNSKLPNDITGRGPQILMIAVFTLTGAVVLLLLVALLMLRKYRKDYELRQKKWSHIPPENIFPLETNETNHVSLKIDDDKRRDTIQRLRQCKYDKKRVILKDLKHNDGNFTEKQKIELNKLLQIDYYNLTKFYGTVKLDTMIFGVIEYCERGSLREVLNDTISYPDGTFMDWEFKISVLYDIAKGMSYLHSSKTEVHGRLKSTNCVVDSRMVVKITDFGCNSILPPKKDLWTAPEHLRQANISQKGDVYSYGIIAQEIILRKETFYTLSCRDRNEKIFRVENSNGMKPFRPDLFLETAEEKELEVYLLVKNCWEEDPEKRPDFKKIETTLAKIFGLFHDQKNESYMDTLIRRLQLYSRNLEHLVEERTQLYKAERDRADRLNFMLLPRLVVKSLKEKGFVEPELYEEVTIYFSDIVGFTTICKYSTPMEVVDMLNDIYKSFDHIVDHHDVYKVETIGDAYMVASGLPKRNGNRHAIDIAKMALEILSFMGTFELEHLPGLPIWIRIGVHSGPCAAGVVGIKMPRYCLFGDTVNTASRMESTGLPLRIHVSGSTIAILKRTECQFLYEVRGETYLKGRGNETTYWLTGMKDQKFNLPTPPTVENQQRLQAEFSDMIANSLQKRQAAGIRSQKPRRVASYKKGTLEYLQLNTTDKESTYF

One may read the EC50 as the concentration needed to bring the measured effect to its halfway point. One may read the Ki as the equilibrium dissociation constant of an inhibitor or competing ligand from its target. Read a low Ki as higher affinity. `CC(C)C[C@@H]1NC(=O)[C@H](CCC(=O)O)NC(=O)[C@@H]2CSSC[C@@H]3NC(=O)[C@H](C)NC(=O)[C@@H]4CCCN4C(=O)[C@H](CC(N)=O)NC(=O)[C@H](CSSC[C@H](NC(=O)[C@H](CC(=O)O)NC(=O)[C@H](CC(=O)O)NC(=O)[C@@H](N)CC(=O)O)C(=O)N2)NC(=O)[C@H](CSSC[C@@H](C(=O)N[C@@H](Cc2ccc(O)cc2)C(=O)O)NC(=O)CNC(=O)[C@H]([C@@H](C)O)NC3=O)NC1=O` [Peptide 17, DDDCCELCCNPACTGCY]: the EC50 at GC-C [1] (pH 5 (DMEM+20 mM MES), read-out: cGMP response in T84 cells EC50 nM pH 5) was determined as 12.9 nM; on GC-C [1] (pH 8 (DMEM+50 mM sodium bicarbonate), read-out: cGMP response in T84 cells EC50 nM pH 8), 4980 nM. Further, the Ki turned out to be 4.3 nM on GC-C [2] (Binding affinity for GC-C Ki (nM) pH 5) and 27.3 nM at GC-C [2] (Binding affinity for GC-C Ki (nM) pH 8).

As for `C[C@@H]1NC(=O)[C@@H]2CCCN2C(=O)[C@H](CC(N)=O)NC(=O)[C@@H]2CSSC[C@H](N)C(=O)N[C@H]3CSSC[C@H](NC1=O)C(=O)N[C@@H]([C@@H](C)O)C(=O)NCC(=O)N[C@H](C(=O)N[C@@H](Cc1ccc(O)cc1)C(=O)O)CSSC[C@H](NC(=O)[C@H](Cc1ccc(O)cc1)NC(=O)[C@H](CCC(=O)O)NC3=O)C(=O)N2` [linaclotide, Linaclotide] (H-CCEYCCNPACTGCY-OH; disulfide 1-6, 2-10, 5-13), the “levels of linaclotide seen systemically” value in series [3] was “no detectable levels”.
